# Data as given in US11390629B2, “1,5-disubstituted 1,2,3-triazoles are inhibitors of Rac/Cdc42 GTPases” (UNIVERSITY OF PUERTO RICO, priority 2016, dated 2022).
# Entries after “also recorded” stand apart in the source; their conditions may differ.
# How the values were obtained:
# MDA-MB-231 cells = experiment: Cell cycle progression by flow cytometry (PI), MDA-MB-231; assay type: cell-based, human; details: 250 nM; listed as MBQ-167
# Procedure: Effect of MBQ-167 on cell survival.
# MDA-MB-231 cells were incubated with 0 or 250 nM MBQ-167 for 48 h and all cells (detached and attached) were stained with PI, as in (27). Cell cycle stage was analyzed using a four-color flow cytometer (FACSCalibur, BD Biosciences, San Jose, Calif.). A total of 20,000 events were analyzed for each sample. List-mode files were collected using Cell Quest software 3.3 and analyzed using the Flow Jo software vX.0.7 (BD Biosciences, San Jose, Calif.).
# [1] = test system: Saccharomyces cerevisiae (expresses only Cdc42); experiment: Yeast bud polarity and growth; details: 100 microM
# MCF10A and MCF-7 cells = experiment: Bright field cell phenotype, epithelial cells; assay type: cell-based, human; details: up to 500 nM
# Procedure: FIGS. 2A, 2B, 2C. Breast cancer cell phenotype following MBQ-167 treatment.
# Human breast cancer cells were visualized by bright field microscopy following MBQ-167 treatment. At ≥100 nM, starting at six hours, MBQ-167 induced a loss of polarity in metastatic breast cancer cells. […] On the other hand, non-cancer mammary epithelial MCF10A and epithelial breast cancer MCF-7 cells were resistant to MBQ-167 and remained polarized and attached to each other and the substratum (FIG. 2A).
# Cdc42 = Cdc42 (Homo sapiens, UniProt P60953); experiment: Cdc42 activity (Table 1A); assay type: cell-based; details: class by % inhibition at stated concentration
# PAK1 and PAK4 = experiment: Western blot of PAK activity, NCI-N87 gastric cancer cells; assay type: cell-based, human; details: NCI-N87, 250 or 500 nM; listed as MBQ-167
# From the text: (§1) FIGS. 8A, 8B. The effect of MBQ-167 on survival and PAK activity in NCI-N87 gastric cancer cells.
# NCI-N87 cells = experiment: MTT viability assay, NCI-N87 gastric cancer cells; assay type: cell-based, human; details: 250 nM
# From the text: as §1
# GFP-MDA-MB-231 cells = experiment: Annexin V-Cy3-18 staining; assay type: cell-based, human; details: 250 or 500 nM, 6 h
# Procedure: FIG. 14. Annexin V staining in response to MBQ-167. GFP-MDA-MB-231 cells growing on coverslips were treated with vehicle or MBQ-167 at 250 or 500 nM for 6 h; Cells were fixed in formaldehyde and stained with Annexin V-Cy3-18; Representative fluorescence micrographs are shown; Arrows indicate red fluorescent Annexin V staining at the membranes of apoptotic cells.
# Apoptotic cells were detected by fluorescence microscopy of Annexin V-Cy3-18 stained cells as per manufacturer's instructions (Sigma-Aldrich, St Louis, Mo., USA). Briefly, GFP-MDA-MB-231 cells grown on coverslips were treated with vehicle, or 250 or 500 nM MBQ-167 for 6 h and stained with Annexin V-Cy3-18 in binding buffer (10 mM HEPES/NaOH, pH 7.5, 0.14 M NaCl, 2.5 mM CaCl2) for 15 min at room temperature. Coverslips were washed in binding buffer and fixed with 3.7% paraformaldehyde prior to fluorescence microscopy. Images were digitally acquired from an Olympus inverted fluorescence microscope.
# [2] = Liver enzyme assays (ALP, ALT) after necropsy; assay type: in vivo, nude mice; details: listed as MBQ-167
# From the text: . Mammary fatpad tumors were established in nude mice by inoculating 5×10^5 GFP-HER2-BM cells; […]; FIG. 6B, Representative fluorescence micrographs of lungs, spleens, and kidneys from vehicle or MBQ-167 treated mice following necropsy; […]; Following necropsy, livers were harvested, lysed and subjected to FIG. 6D, ALP activity or FIG. 6E, ALT activity assays; N=4, error bars represent ±S.E.M.
# The mice from this study were also examined once a week for potential toxicity. […]. At necropsy, livers were harvested, lysed and subjected to liver enzyme assays as a test for potential toxic effects. […]. Frozen stored livers were thawed and homogenized to measure alkaline phosphatase (ALP) and alanine transaminase (ALT) activities using colorimetric assay kits from Abeam and Cayman Chemicals respectively, as per manufacturer's instructions.
# Rho = Rho activation pulldown (Rho binding domain of Rhotekin) and western blot, MDA-MB-231 cells; assay type: cell-based, human; details: MDA-MB-231, 250 nM; listed as MBQ-167
# Procedure: Additionally, Rac, Cdc42, or […] activation was determined, by pulldowns using the P21-binding domain (PBD) of PAK, or Rho binding domain of Rhotekin as described (2, 16). The GTP bound active Rac, Cdc42, or Rho was detected by Western blot (N=3).
# PAK1 and PAK2 = experiment: Western blot of PAK signaling (p-PAK, p-LIMK, p-cofilin), MDA-MB-231; assay type: cell-based, human; details: for reduction of PAK activity compared to vehicle: MDA-MB-231 and GFP-HER2-BM
# Procedure: To investigate the effect of MBQ-167 on Rac/Cdc42 signaling, its effect on the major Rac/Cdc42 downstream effector PAK was investigated. The phosphorylation status of several PAK residues was analyzed by western blotting, as a measure of its activity. At 250 nM, 24 h treatment with MBQ-167 inhibited PAK1 and PAK2 phosphorylation at the T423/T402 and S199/S192 residues in the detached population of MDA-MB-231 cells. […] Even though PAK1^T423 phosphorylation was not inhibited in the attached cells, the reduction in the homologous PAK2 phosphorylation sites indicates a preferential inhibition of PAK2 in the attached cells (FIGS. 4A-1, 4A-2, FIG. 4B-1). […] The decrease in cofilin phosphorylation was evident after 12 h following 250 nM MBQ-167 (FIG. 4C), indicating activation of cofilin, which account for the observed actin cytoskeletal restructuring (FIG. 2B). […] Similarly, in the NCI-N87 human metastatic gastric cancer cell line, MBQ-167 inhibited the viability and the activity of PAK isoforms PAK1 and PAK4, which have been implicated in gastric cancer malignancy (FIG. 8B).
# Cdc42, sequence (P60953 whole entry): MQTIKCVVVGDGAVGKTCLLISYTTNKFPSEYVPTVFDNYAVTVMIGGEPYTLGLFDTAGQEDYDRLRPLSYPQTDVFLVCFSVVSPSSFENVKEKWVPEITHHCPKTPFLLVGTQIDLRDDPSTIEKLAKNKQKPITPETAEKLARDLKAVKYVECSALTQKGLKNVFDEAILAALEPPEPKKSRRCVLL
compound,measurement,setting,value
"CCn1c2ccccc2c2cc(-n3nncc3-c3ccccc3)ccc21 [I-1, 9-ethyl-3-(5-phenyl-1H-1,2,3-triazol-1-yl)-9H-carbazole]",effect on cell cycle,MDA-MB-231 cells,significantly arrested the cell cycle of MDA-MB-231 cells in the G2/M phase; also recorded: G2/M phase arrest
same,effect on yeast bud polarity and growth,[1],inhibited yeast bud polarity and growth
same,cell rounding and detachment phenotype,MCF10A and MCF-7 cells,resistant
same,Cdc42 activity,Cdc42,A (>50% inhibition at 250 nM)
same,effect on PAK activity (phospho-PAK),PAK1 and PAK4,inhibits both PAK1 and PAK4 activities; also recorded: significantly decreases
same,reduction of cell viability,"NCI-N87 cells; 24 h, listed as MBQ-167",55%
same,cytotoxicity at […],"NCI-N87 cells; Homo sapiens, NCI-N87, 24 h, read-out: reduction of cell viability",50%
same,Annexin V staining,GFP-MDA-MB-231 cells,increased Annexin V staining
same,liver ALT activity,[2]; 10 mg/kg BW,significantly increased; also recorded: increases
same,liver ALP activity,[2]; 1 and 10 mg/kg BW,does not significantly affect
same,effect on Rho activation,Rho,did not affect; also recorded: does not affect; also recorded: without affecting
same,LIMK (Y507/T508) and cofilin (S3) phosphorylation,PAK1 and PAK2; 250 nM,both decreased
same,phosphorylation of PAK1 S144,"PAK1 and PAK2; 250 nM, 24 h",dramatic increase
same,PAK1 and PAK2 phosphorylation at T423/T402 and S199/S192,"PAK1 and PAK2; 250 nM, 24 h, detached population",inhibited
same,reduction of PAK activity compared to vehicle,PAK1 and PAK2; attached population,~25%
same,reduction of PAK activity compared to vehicle,PAK1 and PAK2; detached cells,90%
